These results are taken from US7109296B2, “Human 5-HT3-C protein” (Ortho-McNeil Pharmaceutical, Inc., priority 1999, dated 2006).

Holding throughout (type): cell-based
One assay has as its target T1, 5-HT3-A receptors (Homo sapiens, UniProt P46098).
T1 sequence (P46098 24-478): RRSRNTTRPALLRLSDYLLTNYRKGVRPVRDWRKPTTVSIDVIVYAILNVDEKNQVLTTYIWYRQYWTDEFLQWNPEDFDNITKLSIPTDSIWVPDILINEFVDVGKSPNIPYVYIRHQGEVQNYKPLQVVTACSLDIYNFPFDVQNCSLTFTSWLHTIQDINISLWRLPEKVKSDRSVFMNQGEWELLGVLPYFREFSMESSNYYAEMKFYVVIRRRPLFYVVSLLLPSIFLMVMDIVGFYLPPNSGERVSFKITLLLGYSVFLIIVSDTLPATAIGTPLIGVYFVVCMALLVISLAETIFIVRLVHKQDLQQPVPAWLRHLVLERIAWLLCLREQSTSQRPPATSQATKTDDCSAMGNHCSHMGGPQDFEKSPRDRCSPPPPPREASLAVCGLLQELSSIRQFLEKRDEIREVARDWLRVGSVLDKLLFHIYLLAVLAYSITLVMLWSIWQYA
Nature of the assay: FLIPR DiBAC control, cells stably expressing 5-HT3-A receptors. As to conditions: control for the DIBAC; increase in fluorescence.

In assay [1] the target is T2, 5-HT3-C together with nicotinic ACh receptor a6 subunit (Homo sapiens, UniProt Q15825+Q8WXA8).
T2 construct: Characterization of the Function of Protein Encoded by p5HT3CR in Xenopus oocvtes; expressed in transfected cells; host or cells: Xenopus laevis oocytes injected with cRNA
The experiment in a line: Two-electrode voltage clamp, oocytes injected with 5-HT3-C together with nicotinic ACh receptor α6 subunit. Conditions: 10 μM; eight days after injection; 5-HT3-C 0.67 ng, a6 1 ng/oocyte. As for the experimental part:
Characterization of the Function of Protein Encoded by p5HT3CR in Xenopus oocvtes Xenopus laevis oocytes were prepared and injected using standard methods previously described and known in the art (Fraser et al., 1993). Ovarian lobes from adult female Xenopus laevis (Nasco, Fort Atkinson, Wis.) were teased apart, rinsed several times in nominally Ca-free saline containing (in mM): NaCl 82.5, KCl 2.5, MgCl2 1, HEPES 5, adjusted to pH 7.0 with NaOH(OR-2), and gently shaken in OR-2 containing 0.2% collagenase Type 1 (ICN Biomedicals, Aurora, Ohio) for 2–5 hours. When approximately 50% of the follicular layers were removed, Stage V and VI oocytes were selected and rinsed in media consisting of 75% OR-2 and 25% ND-96. The ND-96 contained (in mM): NaCl 100, KCl 2, MgCl2 1, CaCl2 1.8, HEPES 5, Na pyruvate 2.5, gentamicin (50 ug/ml), adjusted to pH 7.0 with NaOH. […] For in vitro transcription, pGEM HE (Liman et al., 1992) containing human 5-HT3-A (Genbank D49394) or 5-HT3-C cDNA was linearized with NheI and transcribed with T7 RNA polymerase (Stratagene) in the presence of the cap analog m7G(5′)ppp(5′)G. The synthesized cRNA was purified with a Sephadex G-50 spin column. Oocytes were injected with 50 nl of the human serotonin 5-HT3-A receptor with or without the 5-HT3-C RNA (0.02 and 0.002–0.2 ng each) or other channel or receptor subunit. Control oocytes were injected with 50 nl of water. Oocytes were incubated for 2–14 days in ND-96 before analysis for expression of the human 5-HT3-C. Incubations and collagenase digestion were carried out at room temperature. Injected oocytes were maintained in 48 well cell culture clusters (Costar, Cambridge, Mass.) at 18° C. Whole cell agonist-induced currents were measured 1–14 days after injection with a conventional two-electrode voltage clamp (GeneClamp500, Axon Instruments, Foster City, Calif.) using standard methods previously described and known in the art (Dascal, 1987). The microelectrodes were filled with 3 M KCl, which had resistances of 1 and 2 MΩ. […]

Assay [2] concerns the target T3, human 5-HT3-A(short) receptor (Homo sapiens, UniProt P46098).
T3 sequence (P46098 24-478): T1 sequence (P46098 24-478)
The experiment in a line: Two-electrode voltage clamp, oocytes expressing 5-HT3-A(short) homomeric receptors.

T2 sequence (Q8WXA8 28-447): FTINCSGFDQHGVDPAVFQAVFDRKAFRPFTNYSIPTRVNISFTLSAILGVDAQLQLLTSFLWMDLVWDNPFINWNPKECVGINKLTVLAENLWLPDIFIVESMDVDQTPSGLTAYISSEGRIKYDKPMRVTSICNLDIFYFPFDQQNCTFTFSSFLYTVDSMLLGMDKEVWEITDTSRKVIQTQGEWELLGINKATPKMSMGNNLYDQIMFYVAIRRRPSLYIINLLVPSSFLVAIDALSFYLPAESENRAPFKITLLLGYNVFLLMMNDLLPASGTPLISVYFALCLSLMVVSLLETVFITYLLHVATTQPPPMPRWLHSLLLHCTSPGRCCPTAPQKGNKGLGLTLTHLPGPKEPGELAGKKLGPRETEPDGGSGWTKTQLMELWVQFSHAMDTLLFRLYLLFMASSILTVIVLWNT
T2 sequence (Q15825 26-494): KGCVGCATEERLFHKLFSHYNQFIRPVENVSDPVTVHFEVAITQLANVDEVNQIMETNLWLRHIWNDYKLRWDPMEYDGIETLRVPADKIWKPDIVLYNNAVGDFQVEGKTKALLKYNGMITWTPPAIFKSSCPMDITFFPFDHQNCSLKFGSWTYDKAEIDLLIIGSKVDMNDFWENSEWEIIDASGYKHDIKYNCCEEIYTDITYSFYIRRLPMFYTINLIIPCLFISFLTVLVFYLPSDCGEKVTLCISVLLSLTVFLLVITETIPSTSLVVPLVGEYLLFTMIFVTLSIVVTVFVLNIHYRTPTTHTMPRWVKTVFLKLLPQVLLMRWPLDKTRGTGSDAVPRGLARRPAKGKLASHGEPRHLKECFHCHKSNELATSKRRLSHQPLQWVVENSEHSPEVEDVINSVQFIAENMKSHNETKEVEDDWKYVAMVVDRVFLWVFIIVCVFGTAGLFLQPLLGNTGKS

Take `NCCc1c[nH]c2ccc(O)cc12` [5-HT, 5-hydroxytryptamine]: the “DiBAC membrane potential response” value at 5-HT3-A receptors is on record as “fast transient depolarization”. For the same molecule, the “responsiveness of oocytes to agonist” value in assay [1] was “not responsive”. For the same molecule, the “peak currents to 5-HT” value in assay [2] (5-HT3-A(short)-expressing oocytes, comparison for 2:1 ratio, n=19) is −1.65+/−0.42 nA. The “Responses to 5-HT” value in assay [2] (10 LM 5-HT, 5-HT3-A(short)-injected oocytes (0.33 ng), n=6) is on record as −3.89+/−0.76 nA.
